Drawing on PubChem BioAssay (NCI), this text covers TGI for twelve compounds.

The structures appear in SMILES notation.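 Where inhibition never reached the appropriate level, the endpoint shown equals the highest concentration tested. Otherwise, values were interpolated linearly from a five-concentration, 48-hour dose response in 96-well plates. TGI: concentration producing complete growth inhibition.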

Holding throughout (test): growth of human tumour cells (NCI), 48 h
Experiment [1] deals with OVCAR-8 ovarian.
In experiment [2] the test system is HT29 colon.
For experiment [3], the system named is MDA-MB-435.
In experiment [4] the test system is NCI-H226 lung.
Experiment [5] deals with SW-620 colon.
For experiment [6], the system named is NCI-H23 lung.
In experiment [7] the test system is CAKI-1 renal.
Experiment [8] relates to SK-MEL-28 melanoma.
Experiment [9] relates to UACC-62 melanoma.
Experiment [10] deals with UACC-257 melanoma.
Experiment [11] deals with HS 578T breast.

On to `N=c1c2c3n(c4c(=O)n(-c5ccccc5)c(=S)n(c(=O)n1-c1ccccc1)c24)CCCCC3`, for which the TGI in [1], in experiment [2], in experiment [3], in [4], in [5] and in experiment [6] was over 100 µM throughout. Besides, the TGI in experiment [7], in experiment [8], in experiment [9], in [10] and in experiment [11] was over 100 µM in each case.
Regarding `C=CC1OC(CCCOC(=O)C(C)(C)C)O[C@@H]1CC` (some centres not stated), the TGI in experiment [1], in experiment [2], in experiment [3], in experiment [4], in experiment [5] and in [6] was over 100 µM each time. In addition, the TGI in experiment [7], in experiment [8], in [9], in experiment [10] and in [11] was over 100 µM each time.
Consider `O=C1Oc2ccccc2C(=O)/C1=C/N1C(=O)/C(=C/c2ccc([N+](=O)[O-])cc2)SC1=S`, for which the TGI in [1] is 96.7 µM; in experiment [2], over 100 µM; in [3], 50.6 µM; in experiment [4], 53.4 µM; in [5], over 100 µM; in experiment [6], 55 µM. Also, the TGI in experiment [7] was 51.3 µM; in [8], 85.7 µM; in experiment [9], over 100 µM; in [10], 90.7 µM; in experiment [11], 34.3 µM.
In the case of `CCC(=O)OCc1ccc2oc(=O)c(C(=O)Oc3cncc(Cl)c3)cc2c1`, the TGI in [1], in experiment [2], in [3], in experiment [4], in experiment [5] and in experiment [6] was over 100 µM in each case. The TGI in experiment [7], in experiment [8], in experiment [9], in experiment [10] and in [11] was over 100 µM throughout.
Turning to `Cc1cc(C)c2c(n1)S(=O)(=O)N(CCCN1CCN(c3cccc(C(F)(F)F)c3)CC1)/C(=C(\O)c1ccccc1)C2=O`, the TGI is over 100 µM in experiment [1]; 43.9 µM in [2]; 82.8 µM in [3]; 7.92 µM in [4]; 29.3 µM in experiment [5]; 21.7 µM in [6]. In addition, the TGI in experiment [7] is 11.9 µM; in [8] it was 57.5 µM; in experiment [9], 27.6 µM; in experiment [10] it was 32.4 µM; in experiment [11] it was over 100 µM.
On to `C[n+]1c2ccccc2c(CNC(CCC(N)=O)C(=O)O)c2ccccc21` (configuration not stated), for which the TGI in experiment [1] is 7.55 µM; in experiment [2] it was 7.01 µM; in [3], 9.95 µM; in [4] it was 18.3 µM; in experiment [5], 1.95 µM; in experiment [6], 13.1 µM. The TGI in experiment [7] stood at 7.53 µM; in [8] it was 12.1 µM; in [9] it was 6.19 µM; in experiment [10], 12.9 µM; in experiment [11], 21.8 µM.
Turning to `COc1ccc(C(=O)N2CCN(c3ccc4c(c3)OCC(=O)N4)CC2)cc1`, the TGI in experiment [1], in [2], in [3], in experiment [4], in experiment [5] and in [6] was over 100 µM throughout. Also, the TGI in experiment [7], in experiment [8], in [9], in experiment [10] and in [11] was over 100 µM throughout.
With `Cn1c(N2CCCC2)c(C=O)c(=O)n(C)c1=O`, the TGI in experiment [1], in experiment [2], in experiment [3], in experiment [4], in [5] and in experiment [6] was over 100 µM throughout. In addition, the TGI in experiment [7], in experiment [8], in [9], in [10] and in [11] was over 100 µM each time.
Regarding `COC(=O)C(NC(=O)CNC(=O)CSc1nnc(COc2ccc(Cl)cc2)n1-c1ccccc1)C(C)C` (configuration not stated), the TGI was found to be 40.8 µM in [1]; 35.3 µM in [2]; 47.4 µM in experiment [3]; 38.3 µM in experiment [4]; 38.2 µM in experiment [5]; 42.8 µM in [6]. The TGI turned out to be 28.2 µM in experiment [7]; 31.1 µM in experiment [8]; 31.8 µM in experiment [9]; 34.6 µM in experiment [10]; 62.9 µM in experiment [11].
As to `OC(c1cccs1)c1cc2ccccc2s1` (configuration not stated), the TGI in experiment [1], in experiment [2], in experiment [3], in [4], in experiment [5] and in experiment [6] was over 10 µM in each case. In addition, the TGI in experiment [7], in experiment [8], in experiment [9], in experiment [10] and in experiment [11] was over 10 µM in each case.
For the compound `C=C1C(=O)OC2/C=C(\C)C(O)CC(O)C(C)(O)CC(OC(=O)/C(C)=C/C)C12` (configuration not stated), the TGI in [1], in experiment [2], in experiment [3], in experiment [4], in experiment [5] and in [6] was over 100 µM in each case. Also, the TGI in experiment [7], in experiment [8], in experiment [9], in [10] and in experiment [11] was over 100 µM throughout.
In the case of `COC(=O)c1ccc2n1C1CC3CC(CC2C3)C1`, the TGI in [1], in experiment [2], in experiment [3], in experiment [4], in experiment [5] and in experiment [6] was over 100 µM each time. Also, the TGI in experiment [7], in experiment [8], in [9], in experiment [10] and in experiment [11] was over 100 µM each time.
